Data from US11566007B2, “Ras inhibitors” (Revolution Medicines, Inc., priority 2019, dated 2023).
Where two headings read alike, the source gives them in different places.

Tests used:
NCI-H358 cells [1] = test: 72-hour proliferation assay using CellTiter-Glo reagent; type: cell-based, human; conditions: read-out: EC50 from a 72-hour proliferation assay
NCI-H358 cells [2] = test: Long-term cell proliferation assay (Incucyte confluence); type: cell-based, human; conditions: trametinib 10 nM
Procedure: The plate was placed in the Incucyte S3 live cell analysis system (37° C., 5% CO2) and confluence was measured by recording images at 6-hour intervals for a maximum of 40 days, or until wells reached maximal confluence. Media and drug were replaced at 3-4 day intervals. Data are plotted as % confluence over the time course of the experiment for each single agent and respective combination (FIG. 5).

[3] = tested on: NCI-H358 KRASG12C xenograft; test: In vivo NSCLC K-Ras G12C xenograft model; design: species or system BALB/c nude mice
Procedure: Cobimetinib was administered by daily oral gavage at 2.5 mg/kg. The combination of Compound B and cobimetinib at their respective single-agent dose and regimen was also tested.

SW1573 = conditions: Canon et al. 2019; cited from earlier work
[4] = ester bond, 18-membered ring, EDCI/HOBt/DIPEA, DCM
[5] = ester bond, EDCI/HOBt/DIPEA, DCM
[6] = single agent: Compound B 50 mg/kg twice weekly intravenous, cobimetinib […] daily oral

In the case of `CC(=O)Nc1cccc(-n2c(=O)n(C3CC3)c(=O)c3c(Nc4ccc(I)cc4F)n(C)c(=O)c(C)c32)c1` [trametinib], the EC50 (NCI-H358 cells [1]) is reported as 10 nM, the “time to maximal confluence after the addition of drug” value (NCI-H358 cells [2]; single agent at EC50 concentration: Compound D 17 nM) is reported as about 10 days and the “cell growth (% confluence) over time, single agent” value (NCI-H358 cells [2]; submaximal (EC50) concentration: Compound D 17 nM) is reported as “a short period of growth inhibition, followed by proliferation”.
In the case of `Cc1nc(N2CCC3(CC2)CO[C@@H](C)[C@H]3N)c(CO)nc1-c1cccc(Cl)c1Cl` [RMC-4550], the “mice with tumor regression at end of study (out of 10), single agent” value ([3]; single agent: Compound C 60 mg/kg once weekly intravenous, SHP2 inhibitor (RMC-4550) 30 mg/kg daily oral) is reported as 5.
For `C=CC(=O)N1CCN(c2nc(=O)n(-c3c(C)ccnc3C(C)C)c3nc(-c4c(O)cccc4F)c(F)cc23)[C@@H](C)C1` [AMG510], the “sensitivity of cell line” value (SW1573) is listed as “insensitive”.
Work on `CO[C@@H](C)c1ncccc1-c1c2c3cc(ccc3n1CC(F)(F)F)-c1cccc(n1)C[C@H](NC(=O)OC(C)(C)C)C(=O)N1CCCC(N1)C(=O)OCC(C)(C)C2` (some centres unmarked) yielded a ring closure, isolated yield ([4]; from CO[C@@H](C)c1ncccc1-c1c(CC(C)(C)CO)c2cc(-c3cccc(C[C@H](NC(=O)OC(C)(C)C)C(=O)N4CCCC(C(=O)O)N4)n3)ccc2n1CC(F)(F)F, 6.27 mM) of 89% and a ring closure, yield of all isomers ([5]; from CO[C@@H](C)c1ncccc1-c1c(CC(C)(C)CO)c2cc(-c3cccc(C[C@H](NC(=O)OC(C)(C)C)C(=O)N4CCCC(C(=O)O)N4)n3)ccc2n1CC(F)(F)F, 6.27 mM, 25.0 °C, 3.0 h) of 89%.
`CC1(C)COC(=O)[C@@H]2CCCN(N2)C(=O)[C@@H](NC(=O)OC(C)(C)C)Cc2cccc(c2)-c2ccc3[nH]c(I)c(c3c2)C1` gave a ring closure, isolated yield ([4]; from CC(C)(CO)Cc1c(I)[nH]c2ccc(-c3cccc(C[C@H](NC(=O)OC(C)(C)C)C(=O)N4CCC[C@@H](C(=O)O)N4)c3)cc12, 12.8 mM, 0.0 °C) of 79.8% and a ring closure, yield of all isomers ([5]; from CC(C)(CO)Cc1c(I)[nH]c2ccc(-c3cccc(C[C@H](NC(=O)OC(C)(C)C)C(=O)N4CCC[C@@H](C(=O)O)N4)c3)cc12, 12.77 mM, 0.0 °C, 16.0 h) of 79.8%.
For `O=C(c1ccc(F)c(F)c1Nc1ccc(I)cc1F)N1CC(O)([C@@H]2CCCCN2)C1` [cobimetinib], the “effect on tumor growth, single agent” value [3, 6] was “tumor growth inhibition” and the “tumor regressions recorded, single agent group” value [3, 6] was “no tumor regressions”.
